Experimental data: US4001228A, “2-Thiol-4,5-diphenyloxazole S-derivatives” (Serono Laboratories, Inc., priority 1974, dated 1977)
Counter-ions that a name gives are not always drawn. Like-named read-outs stand apart in the source and are kept apart here.

Key:
[1] = system: collagen induced platelet aggregation (platelet-rich rabbit plasma); experiment: Collagen (40 μg/ml) induced platelet aggregation in vitro on platelet-rich plasma; assay type: cell-based; conditions: Oryctolagus cuniculus, 10 min
Protocol: (§1) The inhibitory activity on platelet aggregation was determined for the same compounds in vitro on platelet-rich rabbit plasma prepared by collecting the blood in a plastic centrifuge tube containing enough 3.8% sodium citrate to give a concentration of 0.38 g/100 ml when mixed with the blood, and then centrifuging at 100 × g for 20 minutes.
(§2) 1 ml aliquots of the thus prepared plasma were placed in a Platelet Aggregation Meter connected to a potentiometric recorder and tested according to Born, Nature (London), 194, 927 (1962).
(§3) The plasma-test compound mixtures were incubated for 10 min. at 37° C before addition of the aggregating agents, that is, Adenosine Diphosphate (ADP) or collagen.
(§4) The curves were read following the method described by O'Brien et al., Thromb. Diath. Haemorrhag. 16, 751 (1966). Slope and maximum transmission were recorded and expressed as % change with respect to controls. In the case of collagen induced platelet aggregation, the delay time ("reaction time") in seconds from the addition of the aggregating agent to the inflection of the curve was also measured and expressed as % change as above. For comparison purposes, acetylsalicylic acid (ASA) was also tested in the same conditions as the test compounds.
(§5) Negative figures in slope and maximum transmission % changes indicate antiaggregating activity. Positive figures in delay time % changes indicate that the compound is effective in prolonging the reaction time in the collagen induced platelet aggregation test.

[2] = system: ADP induced platelet aggregation (platelet-rich rabbit plasma); experiment: ADP (5 μg/ml) induced platelet aggregation in vitro on platelet-rich plasma; assay type: cell-based; conditions: Oryctolagus cuniculus, 10 min
Protocol: as §1, §2, §3, §4, §5

"Swiss" mice = experiment: Acute toxicity determined as approximate LD50; assay type: in vivo; conditions: i.p.; three groups of three "Swiss" mice
Protocol: (§6) The acute toxicity of some of the compounds of formula (I) was determined as approximate LD50, according to the method described in Acta Pharmacol, et toxicol, 25, 345 (1967), on three groups of three "Swiss" mice.

[3] = Acute toxicity determined as approximate LD50; assay type: in vivo; conditions: mouse, in vivo, ip; three groups of three "Swiss" mice
Protocol: as §6

[4] = read-out: Maximum transmission, % change

| SMILES | inhibition at 1.25 µg/mL [1, 4] [%] | inhibition at 1.25 µg/mL ([1]; read-out: Slope, % change) [%] | inhibition at 100 µg/mL [2, 4] [%] | inhibition at 100 µg/mL ([2]; read-out: Slope, % change) [%] | Approximate LD50 ("Swiss" mice) [mg/kg] | water solubility (Solubility (qualitative)) | LD50 [3] [mg/kg] | also measured |
| --- | --- | --- | --- | --- | --- | --- | --- | --- |
| CC(=O)Oc1ccccc1C(=O)O [ASA, acetylsalicylic acid, reference compound] | 15.2 | 22.1 | 13.2 | 17.4 | – | – | – | – |
| O=C(O)CSc1nc(-c2ccccc2)c(-c2ccccc2)o1 [Example 4, METHYLAMINOETHANOL SALT OF S-(4,5-DIPHENYLOXAZOL-2-YL)-MERCAPTOACETIC ACID] | – | – | – | – | ~220 | – | – | – |
| O=C(O)CSc1nc(-c2ccccc2)c(-c2ccccc2)o1 [Example 3, 2-DIMETHYLAMINOETHANOL SALT OF S-(4,5-DIPHENYLOXAZOL-2-YL)-MERCAPTOACETIC ACID] | – | – | – | – | ~220 | water-soluble | – | – |
| O=C(O)CSc1nc(-c2ccccc2)c(-c2ccccc2)o1 [Example 2, S-(4,5-DIPHENYLOXAZOL-2-yl)-MERCAPTOACETIC ACID] | – | – | – | – | – | – | ~220 | – |
| NC(=O)CSc1nc(-c2ccccc2)c(-c2ccccc2)o1 [Example 9, S-(4,5-DIPHENYLOXAZOL-2-YL)-MERCAPTOACETAMIDE] | – | – | – | – | – | – | ~1200 | inhibition at 1.25 µg/mL ([1]; collagen 40 μg/ml, compound 1.25 μg/ml, 10 min incubation at 37° C, change with respect to controls, negative = antiaggregating, read-out: Maximum transmission, % change): 12.3%; inhibition at 1.25 µg/mL ([1]; collagen 40 μg/ml, compound 1.25 μg/ml, 10 min incubation at 37° C, change with respect to controls, negative = antiaggregating, read-out: Slope, % change): 18.4%; inhibition at 100 µg/mL ([2]; ADP 5 μg/ml, compound 100 μg/ml, 10 min incubation at 37° C, change with respect to controls, negative = antiaggregating, read-out: Maximum transmission, % change): 6.6%; inhibition at 100 µg/mL ([2]; ADP 5 μg/ml, compound 100 μg/ml, 10 min incubation at 37° C, change with respect to controls, negative = antiaggregating, read-out: Slope, % change): 7.1% |
| CN(C)CCOC(=O)CSc1nc(-c2ccccc2)c(-c2ccccc2)o1 [Example 5, 2-DIMETHYL[…]-(4,5-DIPHENYLOXAZOL-2-YL)-MERCAPTOACETATE] | 67.7 | 72.5 | 45.2 | 47.2 | – | water soluble | ~220 | – |
